Assay [1] deals with BMDMs. The assay can be described thus: RNA sequencing (GSEA, ORA) of BMDMs. Particulars: LPS 4 h; for ERK1/2 cascade and PI3K signalling (shared transcriptomic changes) / amino acid metabolism and transport, and autophagy transcripts: BMDMs pre-treated. It is filed as cell-based, mouse. As for the experimental part: (§1) All compounds used DMSO as a vehicle except for 4-hydroxy tamoxifen (EtOH), NAC (PBS), and AOAA for tracing experiments (Media). LPS was used at a concentration of 100 ng/ml for indicated timepoints (2, 3, 4, 6, 8, 24, 48 h). FHIN1 (10 or 20 μM), MMF (50 or 100 μM), DMF (25 μM), AOAA (5 mM), oligomycin (10 μM), CCCP (50 μM) NAC (1 mM), and IMT1 (10 μM) pre-treatments were performed for 3 h prior the addition of LPS. Cells were treated with valinomycin (10 nM) 15 mins before LPS stimulation. Anti-CD210 or IgG control (10 μg/ml) antibodies were added to cells 1 h prior to LPS stimulation. Recombinant mouse IL-10 protein (100 ng/ml) was added to cells at the same time as LPS. Cells were treated with IFN-B1 (220 ng/ml) for 3 h. Cells were treated with C-178 (1 μM) 1 h prior to LPS stimulation or transfection with 2′3′-cGAMP (1.5 μg/ml) for 4 hrs to achieve cGAS-STING activation. Cells were treated with ODN 2088 (1 μM) for 1 hr prior to LPS stimulation or transfection with CPG ODN 1826 (1.5 μg/ml) to achieve TLR9 activation. 3 different timepoints of 4-hydroxy tamoxifen (TAM) (600 nM or 2 μM) or EtOH treatment were performed-these are specified in the individual figure legends. For ‘48 h’ treatments EtOH/TAM was added on day 5 of 6 during the BMDM differentiation protocol. On day 6 they were plated with EtOH/TAM (left overnight) and treated the following day. For ‘72 h’ treatments EtOH/TAM was added on day […] of 6 during the BMDM differentiation protocol. On day 6 they were plated with EtOH/TAM (left overnight) and treated the following day. For ‘96 h’ treatments EtOH/TAM was added on day […] of 6 during the BMDM differentiation protocol. On day 6 they were plated with EtOH/TAM and treated 2 days later.
BMDMs (3 independent mice) were treated as indicated and RNA was extracted as previously detailed. mRNA was extracted from total RNA using poly-T-oligo-attached magnetic beads. After fragmentation, the first strand cDNA was synthesized using random hexamer primers, followed by the second strand cDNA synthesis. The library was checked with Qubit and real-time PCR for quantification and bioanalyzer for size distribution detection. Quantified libraries were pooled and sequenced on the NovaSeq 6000 S4 (Illumina). Differential expression analysis of two conditions/groups was performed using counted reads and the DESeq2 R package^67. Pathway enrichment analyses were performed as indicated in quantification and statistical analysis.
Details of all statistical analyses performed can be found in the figure legends. Data were expressed as mean±standard error of the mean (SEM) unless stated otherwise. Representative western blots are shown. For metabolomics data, MetaboAnalyst 5.0^66 was used to analyse, perform statistics, and visualise the results. Autoscaling of features (metabolites) was used for heatmap generation. One-way ANOVA corrected for multiple comparisons by the Tukey statistical test was used and a p.adjusted<0.05 was set as the cut-off. For proteomics data, protein signal intensity was converted to a log2 scale and biological replicates were grouped by experimental condition. Protein-wise linear models combined with empirical Bayes statistics were used for the differential expression analyses. The Bioconductor package limma was used to carry out the analysis using an R based online tool^68. […] The proteomics cut-offs for analysis were a log2FC of 0.5 and a false discovery rate (FDR)<0.05, determined using t statistics. RNA seq cut-offs were set to log2FC of 1 and an FDR<0.05. Overrepresentation analysis (ORA) of significant changes were assessed using Enrichr^4 and the Bioconductor package clusterProfiler 4.0 in R (version 3.6.1). Further information on this visualisation method is available^69. Emapplots were generated using enrichplot package in R (version 3.6.1). GSEA analysis of RNAseq was performed using the Broad Institutes GSEA 4.1.070. […]

Assay [2] deals with BMDMs. The assay can be described thus: LC-MS steady-state metabolomics / fumarate levels in BMDMs. It is filed as cell-based, mouse. Particulars: LPS 4 h; for ratios of ATP/ADP, ATP/AMP, and P-creatine/creatine: BMDMs pre-treated 3 h (FHIN1 10 or 20 μM, DMF 25 μM). As for the experimental part: as §1
BMDMs (3 independent mice) were plated at 0.5×10^6 cells/well in 12-well plates in technical triplicate per condition, treated as indicated, snap frozen and stored at −80° C. For metabolomics on cytosolic fraction, BMDMs were plated at 10×10^6 cells/10 cm dish and rapid fractionation was performed as previously reported^16. Metabolite extraction solution (MES) (methanol/acetonitrile/water, 50:30:20 v/v/v) was added (0.5 mL per 1×10^6 cells) and samples were incubated for 15 min on dry ice. The resulting suspension was transferred to ice-cold microcentrifuge tubes. Samples were agitated for 20 min at 4° C. in a thermomixer and then incubated at −20° C. for 1 h. Samples were centrifuged at maximum speed for 10 min at 4° C. The supernatant was transferred into a new tube and centrifuged again at maximum speed for 10 min at 4° C. The supernatant was transferred to autosampler vials and stored at −80° C. prior to analysis by LC-MS.
HILIC chromatographic separation of metabolites was achieved using a Millipore Sequant ZIC-PHILIC analytical column (5 μm, 2.1×150 mm) equipped with a 2.1×20 mm guard column (both […] particle size) with a binary solvent system. Solvent A was 20 mM ammonium carbonate, 0.05% ammonium hydroxide; Solvent B was acetonitrile. The column oven and autosampler tray were held at 40° C. and 4° C., respectively. The chromatographic gradient was run at a flow rate of 0.200 mL/min as follows: 0-2 min: 80% B; 2-17 min: linear gradient from 80% B to 20% B; 17-17.1 min: linear gradient from 20% B to 80% B; 17.1-22.5 min: hold at 80% B. Samples were randomized and analysed with LC-MS in a blinded manner and the injection volume was 5 μl. Pooled samples were generated from an equal mixture of all individual samples and analysed interspersed at regular intervals within sample sequence as a quality control. Metabolites were measured with a Thermo Scientific Q Exactive Hybrid Quadrupole-Orbitrap Mass spectrometer (HRMS) coupled to a Dionex Ultimate 3000 UHPLC or with Vanquish Horizon UHPLC coupled to an Orbitrap Exploris 240 mass spectrometer (both Thermo Fisher Scientific) via a heated electrospray ionization source. […]

Where a name gives a salt, the structure may show the parent alone.

With `COC(=O)/C=C/C(=O)OC` [DMF, dimethyl fumarate], in the assay on BMDMs [1] (BMDMs pre-treated vs DMSO), the “Fos expression (RNA seq)” value is recorded as “not reduced”; the “Jun expression (RNA seq)” value is on record as “reduced”; the “other ISGs, such as Lcn2 (RNAseq)” value is recorded as “suppressed”. In the assay with BMDMs [1], the “ERK1/2 cascade and PI3K signalling (shared transcriptomic changes)” value is “strong downregulation”; the “amino acid metabolism and transport, and autophagy transcripts” value was “increased”. Moreover, the “ratios of ATP/ADP, ATP/AMP, and P-creatine/creatine” value in the assay on BMDMs [2] is recorded as “no effect”.
As for `CCOC(=O)[C@@]12CCCC=C1N(Cc1ccc(-c3ccccc3)cc1)C(=O)[C@H]2CC(=O)NC` [FHIN1, Fumarate hydratase-IN-1], in the assay on BMDMs [1] (BMDMs pre-treated vs DMSO), the “Fos expression (RNA seq)” value is “not reduced”; the “Ifnb1 (IFN-β) expression and several interferon-stimulated genes (Irf1, Ifih1, Rsad2, Ifit2), RNAseq” value is recorded as “upregulation”; the “Jun expression (RNA seq)” value is listed as “reduced”; the “NRF2 and ATF4 stress response” value is recorded as “activation”. Further, in the assay with BMDMs [1] (BMDMs pre-treated vs DMSO), the “TNF-α signalling (overrepresentation analysis of RNAseq)” value was “most highly upregulated pathway”; the “expression of HRI stress response, amino acid metabolism and tRNA aminoacylation (GSEA)” value is “Increased expression”; the “expression of inflammatory pathways, including IL-1 and IL-10 signalling (GSEA)” value was “decreased”; the “genes associated with metabolism (GSEA)” value is recorded as “suppression”. The “other ISGs, such as Lcn2 (RNAseq)” value in the assay with BMDMs [1] (BMDMs pre-treated vs DMSO) is listed as “suppressed”. Moreover, in the assay with BMDMs [1], the “ERK1/2 cascade and PI3K signalling (shared transcriptomic changes)” value is on record as “strong downregulation”; the “amino acid metabolism and transport, and autophagy transcripts” value was “increased”. The “ratios of ATP/ADP, ATP/AMP, and P-creatine/creatine” value in the assay with BMDMs [2] is “reduced”. Besides, in the assay on BMDMs [2] (BMDMs pre-treated 3 h), the GSSG/GSH ratio result is given as “unchanged”; the “TCA cycle metabolites including citrate, aconitate, itaconate and succinate” value was “alterations”; the aconitate/citrate ratio entry is given as “decreased”; the “fumarate and 2SC accumulation” value is on record as “enhanced”. Also, in the assay on BMDMs [2] (BMDMs pre-treated 3 h), the “glyceraldehyde 3-phosphate (G3P)/2/3-phosphoglycerate (2/3-PG) ratio” value was “increased” and the total glutathione result was “depletion”.

For the origin of these results see patent US20250018019A1, “TREATMENT OF INTERFERON DRIVEN INFLAMMATION” (The Provost, Fellows, Foundation Scholars and the other …, priority 2023, published 2025).
